Results reported in patent US8822448B2, “Pyrazoloquinoline compound” (Astellas Pharma Inc., priority 2010, dated 2014).
Counter-ions that a name gives are not always drawn.

These molecules were tested against PDE9 (Homo sapiens (Human), UniProt O76083) (assay: PDE9-inhibiting activity (SPA enzyme assay)). Settings: IC50 values; cGMP 1 μM substrate, 30° C.; read-out: PDE9 inhibition.
Type: biochemical
Procedure: The PDE9-inhibiting activity was measured by the following method. That is, to a buffer solution containing tris(hydroxymethyl)aminomethane-hydrochloric acid (40 mM, pH 8.0), magnesium chloride (5 mM), and 2-mercaptoethanol (4 mM) were added cGMP (1 μM) and ^3H-cGMP (0.33 μCi/ml) to give a substrate buffer solution. A test substance solution and an enzyme solution which had been adjusted to an optimal concentration were added thereto to perform a reaction at 30° C. The enzyme reaction was stopped by the addition of Scintillation Proximity Assay (SPA) Beads (Perkin Elmer, USA) containing 5 mM 3-isobutyl-1-methylxanthine (IBMX). For the enzyme activity, the amount of 5′-GMP, which is a reaction degradation product bound to SPA beads, was measured with a TopCount microplate reader (Hewlett Packard, USA). The inhibitory rate was calculated by taking the radioactivity of the control containing no test substance as (A), taking the radioactivity of the blank containing no enzyme as (B), and taking the radioactivity of the test substance as (C), and using the following equation.

Chain of PDE9 (O76083 whole entry): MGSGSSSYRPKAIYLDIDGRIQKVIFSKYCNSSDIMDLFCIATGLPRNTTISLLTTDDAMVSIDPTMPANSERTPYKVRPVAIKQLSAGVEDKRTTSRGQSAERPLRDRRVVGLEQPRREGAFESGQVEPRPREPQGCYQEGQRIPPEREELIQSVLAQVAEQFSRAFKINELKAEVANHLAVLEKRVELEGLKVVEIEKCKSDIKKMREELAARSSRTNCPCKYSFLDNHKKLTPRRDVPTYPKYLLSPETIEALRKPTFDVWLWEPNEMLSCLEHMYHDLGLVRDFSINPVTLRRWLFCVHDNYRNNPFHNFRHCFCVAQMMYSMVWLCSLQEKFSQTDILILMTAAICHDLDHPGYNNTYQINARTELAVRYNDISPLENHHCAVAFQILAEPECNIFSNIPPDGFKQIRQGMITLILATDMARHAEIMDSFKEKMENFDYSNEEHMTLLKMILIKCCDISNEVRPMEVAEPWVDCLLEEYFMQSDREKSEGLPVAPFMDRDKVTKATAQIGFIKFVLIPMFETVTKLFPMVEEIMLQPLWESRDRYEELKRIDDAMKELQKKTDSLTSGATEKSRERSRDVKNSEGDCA

Structure (SMILES) | IC50 [nM]
Cc1cc2[nH]c(=O)c3cnn(C4CCOCC4)c3c2cc1C(=O)N1CCN(Cc2cccnc2)CC1 [Example 2, 7-methyl-8-{[4-(pyridin-3-ylmethyl)piperazin-1-yl]carbonyl}-1-(tetrahydro-2H-pyran-4-yl)-1,5-dihydro-4H-pyrazolo[4,3-c]quinolin-4-one dihydrochloride] | 12
Cc1cc2[nH]c(=O)c3cnn(C4CCOCC4)c3c2cc1C(=O)N1CCN(c2cnccn2)CC1 [Example 50] | 7.5
CCOCCCN1CCN(C(=O)c2cc3c(cc2C)[nH]c(=O)c2cnn(C4CCC4)c23)CC1 [Example 70] | 17
Cc1cc2[nH]c(=O)c3cnn(C4CCOCC4)c3c2cc1C(=O)N1CC2CN(Cc3ccccc3)CC2C1 (stereo not shown) [Example 74] | 12
Cc1cc2[nH]c(=O)c3cnn(C4CCOCC4)c3c2cc1C(=O)N1CCC2(CCCO2)CC1 [Example 87] | 12
CCOCC1CCN(C(=O)c2cc3c(cc2C)[nH]c(=O)c2cnn(C4CCOCC4)c23)C1 (stereo not shown) [Example 92] | 6.1
Cc1cc2[nH]c(=O)c3cnn(C4CCOCC4)c3c2cc1C(=O)N1CCC(OCC(F)F)CC1 [Example 94] | 1.7
CCOCCCCN1CCN(C(=O)c2cc3c(cc2C)[nH]c(=O)c2cnn(C4CCOCC4)c23)CC1 [Example 107] | 15
COc1cc2[nH]c(=O)c3cnn(C4CCCC4)c3c2cc1C(=O)NCC(C)(C)N1CCOCC1 [Example 119] | 8.9
COCCCCN1CCN(C(=O)c2cc3c(cc2OC)[nH]c(=O)c2cnn(C4CCCC4)c23)CC1 [Example 123] | 18
COCCCCN(C)[C@H]1CCN(C(=O)c2cc3c(cc2C)[nH]c(=O)c2cnn(C4CCOCC4)c23)C1 [Example 127] | 5
CCc1cc2[nH]c(=O)c3cnn(C4CCOCC4)c3c2cc1C(=O)N1CCN(CCCCOC)[C@H](C)C1 [Example 129] | 1.1
Cc1cc2[nH]c(=O)c3cnn(C4CCOCC4)c3c2cc1C(=O)N1CCN(CCCC(F)(F)F)CC1 [Example 139] | 3
COCCCCN1C[C@@H]2C[C@H]1CN2C(=O)c1cc2c(cc1C)[nH]c(=O)c1cnn(C3CCOCC3)c12 [Example 145] | 8.3
COCCCCN1CCN(C(=O)c2cc3c(cc2C)[nH]c(=O)c2cnn(C4CCC4)c23)C[C@@H]1C [Example 146] | 5.2
CCOCC1CCN(C(=O)c2cc3c(cc2C)[nH]c(=O)c2cnn([C@H]4CCOC4)c23)CC1 [Example 148] | 5.1
Cc1cc2[nH]c(=O)c3cnn(C4CCOCC4)c3c2cc1C(=O)N1CC(N(C)CCC(F)(F)F)C1 [Example 150] | 8
CCOCC1CCN(C(=O)c2cc3c(cc2C(F)(F)F)[nH]c(=O)c2cnn(C4CCOCC4)c23)CC1 [Example 152] | 53
COCCCCN1CCN(C(=O)c2cc3c(cc2C)[nH]c(=O)c2cnn(CC4CCOCC4)c23)CC1 [Example 154] | 32
Cc1cc2[nH]c(=O)c3cnn(C4CCC4)c3c2cc1C(=O)N1CCN(CCC(F)(F)F)CC1 [Example 161] | 31
CCc1cc2[nH]c(=O)c3cnn(C4CCC4)c3c2cc1C(=O)N1CCN(CCC(F)(F)F)CC1 [Example 162] | 7
COCC(F)(F)CN1CCN(C(=O)c2cc3c(cc2C)[nH]c(=O)c2cnn([C@H]4CCOC4)c23)CC1 [Example 166] | 10
CCOCCC1CCN(C(=O)c2cc3c(cc2C)[nH]c(=O)c2cnn(C4CCOCC4)c23)CC1 [Example 168] | 4.3
Cc1cc2[nH]c(=O)c3cnn(C4CCOCC4)c3c2cc1C(=O)N1CCC(OC2CCC2)CC1 [Example 169] | 2.5
Cc1cc2[nH]c(=O)c3cnn(C4CCOCC4)c3c2cc1C(=O)N1CCN(CCCOC(F)(F)F)CC1 [Example 173] | 6.3
Cc1cc2[nH]c(=O)c3cnn([C@H]4CCOC4)c3c2cc1C(=O)N1CCC(OC[C@H](C)F)CC1 [Example 178] | 4.4
COCCCN1CCN(C(=O)c2cc3c(cc2C)[nH]c(=O)c2cnn(C4CCC4)c23)C[C@@H]1C [Example 179] | 6.8

Second part, the molecule after the results:

IC50 [nM] | Structure (SMILES)
4.4 | Cc1cc2[nH]c(=O)c3cnn([C@H]4CCN(C)C4)c3c2cc1C(=O)N1CCN(c2ccc(F)c(C)n2)[C@@H](C)C1 [Example 181]
5.5 | Cc1cc2[nH]c(=O)c3cnn([C@H]4CCN(C)C4)c3c2cc1C(=O)N1CCN(c2ccc(F)c(C)n2)[C@H](C)C1 [Example 182]
3.5 | COCCCCN1C[C@H](C)N(C(=O)c2cc3c(cc2C)[nH]c(=O)c2cnn(C4CCOCC4)c23)C[C@H]1C [Example 183]
4.7 | Cc1cc2[nH]c(=O)c3cnn(C4CCOCC4)c3c2cc1C(=O)N1C[C@@H](C)N(CCC(F)(F)F)C[C@@H]1C [Example 184]
19 | Cc1cc2[nH]c(=O)c3cnn([C@H]4CCOC4)c3c2cc1C(=O)N1CCN(CCC(F)(F)F)CC1 [Example 185]
3.8 | COCCCCN1CCN(C(=O)c2cc3c(cc2C)[nH]c(=O)c2cnn(C4CCCC4)c23)C[C@@H]1C [Example 186]
8.4 | COCCCCN1C[C@H](C)N(C(=O)c2cc3c(cc2C)[nH]c(=O)c2cnn(CC4CC4)c23)C[C@H]1C [Example 187]
14 | Cc1cc2[nH]c(=O)c3cnn(CC4CC4)c3c2cc1C(=O)N1C[C@@H](C)N(CCC(F)(F)F)C[C@@H]1C [Example 188]
6.9 | COCCCCN1C[C@H](C)N(C(=O)c2cc3c(cc2C)[nH]c(=O)c2cnn(CC4CCC4)c23)C[C@H]1C [Example 189]
7.5 | Cc1cc2[nH]c(=O)c3cnn(CC4CCC4)c3c2cc1C(=O)N1C[C@@H](C)N(CCC(F)(F)F)C[C@@H]1C [Example 190]
9.5 | Cc1cc2[nH]c(=O)c3cnn([C@H]4CCOC4)c3c2cc1C(=O)N1CCC(OCC(C)(F)F)CC1 [Example 191]
11 | Cc1cc2[nH]c(=O)c3cnn(C4CCOCC4)c3c2cc1C(=O)N1CCC(C(F)(F)F)CC1 [Example 192]
5.7 | COCCCCN1CCN(C(=O)c2cc3c(cc2C)[nH]c(=O)c2cnn(C4CCC(F)(F)CC4)c23)C[C@@H]1C [Example 193]
4.4 | COCCCCN1CCN(C(=O)c2cc3c(cc2C)[nH]c(=O)c2cnn(CC4CC4)c23)C[C@@H]1C [Example 195]
3.2 | Cc1cc2[nH]c(=O)c3cnn([C@H]4CCOC4)c3c2cc1C(=O)N1CCC(OCC2CC2)CC1 [Example 198]
4.7 | CCCOC1CCN(C(=O)c2cc3c(cc2C)[nH]c(=O)c2cnn([C@H]4CCOC4)c23)CC1 [Example 199]
9 | Cc1cc2[nH]c(=O)c3cnn([C@H]4CCOC4)c3c2cc1C(=O)N1CCN(CCCC(F)(F)F)CC1 [Example 200]
6.6 | CCOCCC1CCN(C(=O)c2cc3c(cc2C)[nH]c(=O)c2cnn([C@H]4CCOC4)c23)CC1 [Example 201]
3.7 | Cc1cc2[nH]c(=O)c3cnn([C@H]4CCOC4)c3c2cc1C(=O)N1CCC(OC2CCC2)CC1 [Example 202]

IC50 [nM] | Structure (SMILES)
2.8 | Cc1cc2[nH]c(=O)c3cnn([C@H]4CCOC4)c3c2cc1C(=O)N1CCC(OCC(F)(F)F)CC1 [Example 203]
6.2 | COCCCCN1CCN(C(=O)c2cc3c(cc2C)[nH]c(=O)c2cnn(CC4CC(F)(F)C4)c23)C[C@@H]1C [Example 204]
1.7 | Cc1cc2[nH]c(=O)c3cnn(C4CCOCC4)c3c2cc1C(=O)N1CCN(CCC(F)(F)F)[C@@H](C)C1 [Example 207]
1.7 | Cc1cc2[nH]c(=O)c3cnn(C4CCC(F)(F)CC4)c3c2cc1C(=O)N1CCN(CCC(F)(F)F)[C@@H](C)C1 [Example 208]
1.3 | Cc1cc2[nH]c(=O)c3cnn(CC4CC4)c3c2cc1C(=O)N1CCN(CCC(F)(F)F)[C@@H](C)C1 [Example 210]
1.2 | Cc1cc2[nH]c(=O)c3cnn(CC4CCC4)c3c2cc1C(=O)N1CCN(CCC(F)(F)F)[C@@H](C)C1 [Example 211]
2.4 | Cc1cc2[nH]c(=O)c3cnn(C4CCCC4)c3c2cc1C(=O)N1CCN(CCC(F)(F)F)[C@@H](C)C1 [Example 212]
11 | Cc1ccc(OC2CCN(C(=O)c3cc4c(cc3C)[nH]c(=O)c3cnn(C5CCN(C)CC5)c34)CC2)nc1 [Example 213]
16 | CCN1CCN(C(=O)c2cc3c(cc2C)[nH]c(=O)c2cnn(C4CCN(C)CC4)c23)C[C@@H]1c1ccccc1 [Example 214]
15 | Cc1cc2[nH]c(=O)c3cnn([C@H]4CCOC4)c3c2cc1C(=O)N1CCN(CCCOC(F)(F)F)CC1 [Example 219]
16 | Cc1cc2[nH]c(=O)c3cnn([C@H]4CCOC4)c3c2cc1C(=O)N1CCC(OC[C@@H](C)F)CC1 [Example 220]
24 | Cc1cc2[nH]c(=O)c3cnn(C4CCOCC4)c3c2cc1C(=O)N1CCC(O)(C(F)(F)F)CC1 [Example 221]
5.9 | Cc1cc2[nH]c(=O)c3cnn(C4CCOCC4)c3c2cc1C(=O)N1CCC2(CC1)COc1ccccc12 [Example 283]
20 | Cc1cc2[nH]c(=O)c3cnn(C4CCOCC4)c3c2cc1C(=O)N1CCN(CC(F)(F)F)CC1 [Example 427]
10 | COCCCN1CCN(C(=O)c2cc3c(cc2C)[nH]c(=O)c2cnn(C4CCC(F)(F)CC4)c23)C[C@@H]1C [Example 624]
3.3 | COCCCN1CCN(C(=O)c2cc3c(cc2C)[nH]c(=O)c2cnn(CC4CC4)c23)C[C@@H]1C [Example 640]
2 | COCCCN1CCN(C(=O)c2cc3c(cc2C)[nH]c(=O)c2cnn(CC4CCC4)c23)C[C@@H]1C [Example 648]
4.7 | COCCCN1CCN(C(=O)c2cc3c(cc2C)[nH]c(=O)c2cnn(C4CCCC4)c23)C[C@@H]1C [Example 655]
